Data reported in patent publication US20230365592A1 (Agios Pharmaceuticals, Inc., priority 2022, published 2023).

What follows are compounds tested against T1, human PAH with the R408W mutation (Homo sapiens, UniProt P00439, R408W) (assay: Cell Based Phenylalanine Flux Assay). Conditions: A375 cells expressing human R408W PAH; 24 hrs compound incubation; 13C-Tyrosine by LC-MS; average where tested multiple times; read-out: AC50.
T1 construct: expressed in transfected cells
T1 sequence (P00439 1-452 R408W): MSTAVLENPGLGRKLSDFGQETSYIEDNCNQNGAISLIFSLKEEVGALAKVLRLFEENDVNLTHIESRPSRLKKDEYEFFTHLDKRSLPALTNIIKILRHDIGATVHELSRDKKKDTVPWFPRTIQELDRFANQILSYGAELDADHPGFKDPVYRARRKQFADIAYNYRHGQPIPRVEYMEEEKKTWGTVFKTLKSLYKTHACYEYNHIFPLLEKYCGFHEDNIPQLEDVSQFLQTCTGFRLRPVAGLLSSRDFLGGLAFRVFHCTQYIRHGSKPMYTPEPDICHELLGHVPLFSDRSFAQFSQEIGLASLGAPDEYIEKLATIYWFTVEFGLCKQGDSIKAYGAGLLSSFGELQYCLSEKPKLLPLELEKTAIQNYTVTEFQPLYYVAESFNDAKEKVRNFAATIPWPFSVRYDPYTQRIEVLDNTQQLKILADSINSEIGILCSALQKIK
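Further: after compound treatment, cells received sepiapterin plus isotope-labelled Phenylalanine for 4 hours, then labelled Tyrosine in the medium was quantified, 10-point 2-fold dilution series run in duplicate.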

SMILES	AC50
O=C(c1nnc(-c2ncccc2F)o1)N1CCc2[nH]cnc2[C@@H]1c1cc2c(OC(F)F)cccn2n1 [Example 1656, (R)-(4-(4-(difluoromethoxy)pyrazolo[1,5-a]pyridin-2-yl)-6,7-dihydro-1H-imidazo[4,5-c]pyridin-5(4H)-yl)(5-(3-fluoropyridin-2-yl)-1,3,4-oxadiazol-2-yl)methanone]	> 5 µM
O=C(c1nnc(-c2ncccc2F)o1)N1CCc2[nH]cnc2[C@H]1c1cc2c(OC(F)F)cccn2n1 [Example 1657, (S)-(4-(4-(difluoromethoxy)pyrazolo[1,5-a]pyridin-2-yl)-6,7-dihydro-1H-imidazo[4,5-c]pyridin-5(4H)-yl)(5-(3-fluoropyridin-2-yl)-1,3,4-oxadiazol-2-yl)methanone]	0.5 to 1 µM
Cc1c(-c2nnc(C(=O)N3CCc4[nH]cnc4[C@H]3c3cc4c(OC(F)F)cccn4n3)o2)cnn1C [Example 1658, (S)-(4-(4-(difluoromethoxy)pyrazolo[1,5-a]pyridin-2-yl)-6,7-dihydro-1H-imidazo[4,5-c]pyridin-5(4H)-yl)(5-(1,5-dimethyl-1H-pyrazol-4-yl)-1,3,4-oxadiazol-2-yl)methanone]	0.5 to 1 µM
O=C(c1nnc(-c2cnn(C(F)F)c2)o1)N1CCc2[nH]cnc2[C@H]1c1cc2c(OC(F)F)cccn2n1 [Example 1660, (S)-(4-(4-(difluoromethoxy)pyrazolo[1,5-a]pyridin-2-yl)-6,7-dihydro-1H-imidazo[4,5-c]pyridin-5(4H)-yl)(5-(1-(difluoromethyl)-1H-pyrazol-4-yl)-1,3,4-oxadiazol-2-yl)methanone]	0.5 to 1 µM
O=C(c1nnc(-c2ccn(C(F)F)n2)o1)N1CCc2[nH]cnc2[C@H]1c1cc2c(OC(F)F)cccn2n1 [Example 1662, (S)-(4-(4-(difluoromethoxy)pyrazolo[1,5-a]pyridin-2-yl)-6,7-dihydro-1H-imidazo[4,5-c]pyridin-5(4H)-yl)(5-(1-(difluoromethyl)-1H-pyrazol-3-yl)-1,3,4-oxadiazol-2-yl)methanone]	0.5 to 1 µM
O=C(c1nnc(-c2ccn(C(F)F)n2)o1)N1CCc2[nH]cnc2[C@@H]1c1cc2c(OC(F)F)cccn2n1 [Example 1663, (R)-(4-(4-(difluoromethoxy)pyrazolo[1,5-a]pyridin-2-yl)-6,7-dihydro-1H-imidazo[4,5-c]pyridin-5(4H)-yl)(5-(1-(difluoromethyl)-1H-pyrazol-3-yl)-1,3,4-oxadiazol-2-yl)methanone]	> 5 µM
Clc1cccn2nc([C@@H]3c4nc[nH]c4CCN3c3ncccn3)cc12 [Example 1664, (S)4-(4-chloropyrazolo[1,5-a]pyridin-2-yl)-5-(pyrimidin-2-yl)-4,5,6,7-tetrahydro-1H-imidazo[4,5-c]pyridine]	< 0.5 µM
Clc1cccn2nc([C@H]3c4nc[nH]c4CCN3c3ncccn3)cc12 [Example 1665, (R)-4-(4-chloropyrazolo[1,5-a]pyridin-2-yl)-5-(pyrimidin-2-yl)-4,5,6,7-tetrahydro-1H-imidazo[4,5-c]pyridine]	1 to 5 µM
Cc1ccc2c(C(=O)N3CCc4[nH]cnc4[C@@H]3c3cc4c(C(F)(F)F)cccn4n3)cnn2c1 [Example 1667, (R)-(6-methylpyrazolo[1,5-a]pyridin-3-yl)(4-(4-(trifluoromethyl)pyrazolo[1,5-a]pyridin-2-yl)-6,7-dihydro-1H-imidazo[4,5-c]pyridin-5(4H)-yl)methanone]	> 5 µM
Cc1ccc2c(C(=O)N3CCc4[nH]cnc4[C@@H]3c3cc4c(C)cccn4n3)cnn2c1 [Example 1669, (R)-(4-(4-methylpyrazolo[1,5-a]pyridin-2-yl)-6,7-dihydro-1H-imidazo[4,5-c]pyridin-5(4H)-yl)(6-methylpyrazolo[1,5-a]pyridin-3-yl)methanone]	> 5 µM
Cc1ccc2c(C(=O)N3CCc4[nH]cnc4[C@H]3c3cc4c(F)cccn4n3)cnn2c1 [Example 1670, (S)-(4-(4-fluoropyrazolo[1,5-a]pyridin-2-yl)-6,7-dihydro-1H-imidazo[4,5-c]pyridin-5(4H)-yl)(6-methylpyrazolo[1,5-a]pyridin-3-yl)methanone]	0.5 to 1 µM
O=C(c1cnn2cc(C3CC3)ccc12)N1CCc2[nH]cnc2[C@H]1c1cc2c(F)cccn2n1 [Example 1672, (S)-(6-cyclopropylpyrazolo[1,5-a]pyridin-3-yl)(4-(4-fluoropyrazolo[1,5-a]pyridin-2-yl)-6,7-dihydro-1H-imidazo[4,5-c]pyridin-5(4H)-yl)methanone]	< 0.5 µM
COc1ccc2c(C(=O)N3CCc4[nH]cnc4[C@H]3c3cc4c(C(F)(F)F)cccn4n3)cnn2c1 [Example 1674, (S)-(6-methoxypyrazolo[1,5-a]pyridin-3-yl)(4-(4-(trifluoromethyl)pyrazolo[1,5-a]pyridin-2-yl)-6,7-dihydro-1H-imidazo[4,5-c]pyridin-5(4H)-yl)methanone]	0.5 to 1 µM
COc1ccc2c(C(=O)N3CCc4[nH]cnc4[C@H]3c3cc4c(C(F)F)cccn4n3)cnn2c1 [Example 1676, (S)-(4-(4-(difluoromethyl)pyrazolo[1,5-a]pyridin-2-yl)-6,7-dihydro-1H-imidazo[4,5-c]pyridin-5(4H)-yl)(6-methoxypyrazolo[1,5-a]pyridin-3-yl)methanone]	0.5 to 1 µM
COc1ccc2c(C(=O)N3CCc4[nH]cnc4[C@@H]3c3cc4c(C(F)F)cccn4n3)cnn2c1 [Example 1677, (R)-(4-(4-(difluoromethyl)pyrazolo[1,5-a]pyridin-2-yl)-6,7-dihydro-1H-imidazo[4,5-c]pyridin-5(4H)-yl)(6-methoxypyrazolo[1,5-a]pyridin-3-yl)methanone]	> 5 µM
O=C(c1nnc(-c2ncccc2F)o1)N1CCc2[nH]cnc2[C@@H]1c1cc2c(OC(F)(F)F)cccn2n1 [Example 1678, (R)-(5-(3-fluoropyridin-2-yl)-1,3,4-oxadiazol-2-yl)(4-(4-(trifluoromethoxy)pyrazolo[1,5-a]pyridin-2-yl)-6,7-dihydro-1H-imidazo[4,5-c]pyridin-5(4H)-yl)methanone]	> 5 µM
O=C(c1nnc(-c2ncccc2F)o1)N1CCc2[nH]cnc2[C@H]1c1cc2c(OC(F)(F)F)cccn2n1 [Example 1679, (S)-(5-(3-fluoropyridin-2-yl)-1,3,4-oxadiazol-2-yl)(4-(4-(trifluoromethoxy)pyrazolo[1,5-a]pyridin-2-yl)-6,7-dihydro-1H-imidazo[4,5-c]pyridin-5(4H)-yl)methanone]	< 0.5 µM

The next lines start with the values.

AC50	SMILES
0.5 to 1 µM	O=C(c1nnc(-c2cnccn2)o1)N1CCc2[nH]cnc2[C@H]1c1cc2c(OC(F)(F)F)cccn2n1 [Example 1680, (S)-(5-(pyrazin-2-yl)-1,3,4-oxadiazol-2-yl)(4-(4-(trifluoromethoxy)pyrazolo[1,5-a]pyridin-2-yl)-6,7-dihydro-1H-imidazo[4,5-c]pyridin-5(4H)-yl)methanone]
< 0.5 µM	Cn1cc(-c2nnc(C(=O)N3CCc4[nH]cnc4[C@H]3c3cc4c(OC(F)(F)F)cccn4n3)o2)cn1 [Example 1682, (S)-(5-(1-methyl-1H-pyrazol-4-yl)-1,3,4-oxadiazol-2-yl)(4-(4-(trifluoromethoxy)pyrazolo[1,5-a]pyridin-2-yl)-6,7-dihydro-1H-imidazo[4,5-c]pyridin-5(4H)-yl)methanone]
0.5 to 1 µM	CC(C)(C)c1nnc(C(=O)N2CCc3[nH]cnc3[C@H]2c2cc3c(OC(F)F)cccn3n2)o1 [Example 1687, (S)-(5-(tert-butyl)-1,3,4-oxadiazol-2-yl)(4-(4-(difluoromethoxy)pyrazolo[1,5-a]pyridin-2-yl)-6,7-dihydro-1H-imidazo[4,5-c]pyridin-5(4H)-yl)methanone]
< 0.5 µM	O=C(c1nnc(-c2ccccn2)o1)N1CCc2[nH]cnc2[C@H]1c1cc2c(OC(F)F)cccn2n1 [Example 1689, (S)-(4-(4-(difluoromethoxy)pyrazolo[1,5-a]pyridin-2-yl)-6,7-dihydro-1H-imidazo[4,5-c]pyridin-5(4H)-yl)(5-(pyridin-2-yl)-1,3,4-oxadiazol-2-yl)methanone]
0.5 to 1 µM	Cc1cccc2cc([C@@H]3c4nc[nH]c4CCN3C(=O)c3cnn4cc(CN(C)C)ccc34)nn12 [Example 1690, (S)-(6-((dimethylamino)methyl)pyrazolo[1,5-a]pyridin-3-yl)(4-(7-methylpyrazolo[1,5-a]pyridin-2-yl)-6,7-dihydro-1H-imidazo[4,5-c]pyridin-5(4H)-yl)methanone]
> 5 µM	Cc1cccc2cc([C@H]3c4nc[nH]c4CCN3C(=O)c3cnn4cc(CN(C)C)ccc34)nn12 [Example 1691, (R)-(6-((dimethylamino)methyl)pyrazolo[1,5-a]pyridin-3-yl)(4-(7-methylpyrazolo[1,5-a]pyridin-2-yl)-6,7-dihydro-1H-imidazo[4,5-c]pyridin-5(4H)-yl)methanone]
< 0.5 µM	FC(F)(F)c1cccn2nc([C@@H]3c4nc[nH]c4CCN3c3ncccn3)cc12 [Example 1692, (S)-5-(pyrimidin-2-yl)-4-(4-(trifluoromethyl)pyrazolo[1,5-a]pyridin-2-yl)-4,5,6,7-tetrahydro-1H-imidazo[4,5-c]pyridine]
0.5 to 1 µM	COc1ccc2c(C(=O)N3CCc4[nH]cnc4[C@H]3c3cc4c(F)cccn4n3)cnn2c1 [Example 1696, (S)-(4-(4-fluoropyrazolo[1,5-a]pyridin-2-yl)-6,7-dihydro-1H-imidazo[4,5-c]pyridin-5(4H)-yl)(6-methoxypyrazolo[1,5-a]pyridin-3-yl)methanone]
